Values of other authors as cited in article PMC4263960 (Pediatric blood & cancer, 2013).
Like-named read-outs stand apart in the source and are kept apart here.

Assays:
[1] = system: neuroblastoma in children; settings: 45 children with neuroblastoma; cited from earlier work
[2] = system: pediatric preclinical xenograft models; settings: cited from earlier work
Ewing sarcoma patients = settings: cited from earlier work
[3] = system: recurrent solid tumors in children; settings: cited from earlier work
pediatric solid tumors = settings: cited from earlier work

COc1ccc(S(=O)(=O)Nc2cccnc2Nc2ccc(O)cc2)cc1 [ABT-751]
objective responses [1]: absence of objective responses
preclinical models with regression ([2]; all models): 4 of 25
preclinical models with regression ([2]; neuroblastoma models refractory to vincristine and paclitaxel): 2 of 4

CC[C@]1(O)C[C@H]2CN(CCc3c([nH]c4ccccc34)[C@@](C(=O)OC)(c3cc4c(cc3OC)N(C=O)[C@H]3[C@@](O)(C(=O)OC)[C@H](OC(C)=O)[C@]5(CC)C=CCN6CC[C@]43[C@@H]65)C2)C1 [vincristine]
patients with a partial response (Ewing sarcoma patients): one of seven

CCC1=C[C@@H]2CN(C1)Cc1c([nH]c3ccccc13)[C@@](C(=O)OC)(c1cc3c(cc1OC)N(C)[C@H]1[C@@](O)(C(=O)OC)[C@H](OC(C)=O)[C@]4(CC)C=CCN5CC[C@]31[C@@H]54)C2 [vinorelbine]
patients with objective responses ([3]; astrocytoma): 1 of 4
patients with objective responses ([3]; eight children with neuroblastoma): no responses
patients with objective responses ([3]; medulloblastoma): 1 of 2
patients with objective responses ([3]; nine patients with non-rhabdomyosarcoma soft tissue sarcoma): no responses
patients with objective responses ([3]; rhabdomyosarcoma): 4 of 11
patients with objective responses (pediatric solid tumors; Ewing sarcomas): one of seven
patients with objective responses (pediatric solid tumors; osteosarcomas): one of five
patients with objective responses (pediatric solid tumors; rhabdomyosarcoma): 6 of 12
